Data from patent publication US4127576A, “Nortropine-carbazate derivatives” (Egyt Gyogyszervegyeszeti Gyar, priority 1976, dated 1978).
Where a name gives a salt, the structure may show the parent alone. Read-outs that look alike come from different tables or passages of the source.

Legend:
[1] = tested on: rats; assay: hypermotility provoked with amphetamine in rats (method of Janssen); format: in vivo, rat
Protocol: The effect of 8-phenoxycarbonyl-3-hydrazinocarbonyloxy-nortropane exerted on the hypermotility provoked with amphetamine on rats was examined by the method of Janssen (Psychopharmacologia 1, 389- 392/1960/). The stimulation of central nervous system was provoked with subcutaneous dosages of 7.5 mg/kg of amphetamine. The tests were performed on groups each consisting of 10 rats.

[2] = tested on: mice; assay: hypermotility provoked with amphetamine in mice (light interruption); format: in vivo, mouse
Protocol: (§1) The effect of 8-phenoxycarbonyl-3-hydrazinocarbonyl-oxy-nortropane exerted on the motilities of mice was tested according to the method of Borsy et al. (Arch. Int. Pharmacodyn. 124, 1- 2/1960/). The compound was administered orally in dosages of 20 to 80 mg/kg.
The above test method was applied also to study how 8-phenoxycarbonyl-3-hydrazinocarbonyloxy-nortropane does influence the hypermotility provoked with amphetamine (2-amino-1-phenyl-propane). Amphetamine was administered subcutaneously to mice in dosages of 7.5 mg/kg.

[3] = toxicity test on rats, observation for 7 days; details: rat, in vivo, po
Protocol: (§2) The toxicities and narcosis potentiating effects of the novel compounds having the general formula (I) were studied on rats weighing 120 to 150 g. In the toxicity tests the animals were kept under observation for 7 days. The narcosis potentiating effect was studied on animals treated with an intravenous dosage of 50 mg/kg of hexabarbital (5-/1-cyclohexenyl/-1',5-dimethylbarbituric acid), and the prolongation of sleeping period was recorded. A 150% prolongated of sleeping period in relation to the controls was regarded as positive response. The number of animals with positive responses was related to the total number of animals treated.

[4] = tested on: rats; assay: narcosis potentiating effect (prolongation of hexabarbital sleeping period); format: in vivo; details: Rattus norvegicus, po, read-out: ED50 (narcosis potentiating effect)
Protocol: as §2

[5] = tested on: mice; assay: effect on motility of mice (method of Borsy et al.); format: in vivo, mouse; details: oral, 20 to 80 mg/kg
Protocol: as §1

[6] = 0.9% saline 20 ml/kg p.o. + amphetamine 7.5 mg/kg s.c.
[7] = 0.9% saline 20 ml/kg s.c. + compound 40 mg/kg p.o., no amphetamine
[8] = compound 40 mg/kg p.o. + amphetamine 7.5 mg/kg s.c.

CC(N)Cc1ccccc1 (stereo not drawn) [Amphetamine, 2-amino-1-phenyl-propane, reference compound]
Rearing (average) [1, 6]: 28.6
Triangle walked in (average) [1, 6]: 28.5
Washing (average) [1, 6]: 2.7
Light interruption (average) ([2]; amphetamine 7.5 mg/kg s.c. + 5% carboxymethylcellulose solution): 583

CN(C)CCCN1c2ccccc2Sc2ccc(Cl)cc21 [Chloropromazine, 2-chloro-10-/3-dimethylaminopropyl/-phenothiazine, reference compound]
LD50 at 168 h [3]: 210 mg/kg
ED50 ([4]; rats, hexabarbital 50 mg/kg i.v., 150% prolongation of sleeping period = positive response): 4.7 mg/kg

CCOC(=O)N1[C@@H]2CC[C@H]1C[C@@H](OC(=O)NN)C2 [Example 1, 8-Ethoxycarbonyl-3α-hydrazinocarbonyloxy-nortropane hydrochloride]
LD50 at 168 h [3]: > 2000 mg/kg
ED50 [4]: 0.54 mg/kg

NNC(=O)O[C@H]1C[C@H]2CC[C@@H](C1)N2C(=O)Oc1ccccc1 [Example 3, 8-Phenoxycarbonyl-3α-hydrazinocarbonyloxy-nortropane]
LD50 at 168 h [3]: 5000 mg/kg
ED50 [4]: 3 mg/kg
Rearing (average) [1, 7]: 11.8
Triangle walked in (average) [1, 7]: 16.1
Washing (average) [1, 7]: 3.3
Rearing (average) [1, 8]: 21.5
Triangle walked in (average) [1, 8]: 14.5
Washing (average) [1, 8]: 0.6
Light interruption (average) ([2]; amphetamine 7.5 mg/kg s.c. + compound 40 mg/kg p.o.): 270
Light interruption (average) ([2]; amphetamine 7.5 mg/kg s.c. + compound 80 mg/kg p.o.): 175
inhibition of locomotor stimulating effect of amphetamine ([2]; mice, both dosages examined (40 and 80 mg/kg p.o.)): completely inhibited
influence on motility [5]: did not influence the motilities

CC(=O)N(NC(=O)OC1CC2CCC(C1)N2C(=O)Oc1ccccc1)C(C)=O (stereo not drawn) [Example 14, 8-Phenoxycarbonyl-3α-(2',2'-diacetyl-hydrazinocarbonyloxy)-nortropane]
LD50 at 168 h [3]: > 1200 mg/kg
ED50 [4]: 1 mg/kg

O=C(CCCN1CCC(O)(c2ccc(Cl)cc2)CC1)c1ccc(F)cc1 [Haloperidol, 4-(4-chlorophenyl/-4-hydroxy-piperidyl)-4'-fluoro-butyrophenone, reference compound]
LD50 at 168 h [3]: 450 mg/kg
ED50 [4]: 2.8 mg/kg
